{
  "source": "patent US9511134B2",
  "about": "“Inducing immune responses to influenza virus using polypeptide and nucleic acid compositions” (priority 2006, dated 2016)",
  "key": {"DRB1*0401": {"target": "T1, DRB1*0401 (Homo sapiens, UniProt P01903+P01911, A100K/A169T/F76Y/I96L/K127E/L162R/M171V/N62H/P40V/Q125Y/R42H/S133A/S149N/S66Y/V115G/V209L/W38E)", "T1 construct": "made in house; host or cells: EBV-transformed homozygous human B cell lines, transfected fibroblasts or single-allele 721.221 transfectants", "experiment": "biochemical", "assay_type": "binding", "details": "read-out: IC50 nM to purified HLA DRB1*0401"}, "DRB1*0404": {"target": "DRB1*0404 (Homo sapiens, UniProt P01903+P01911, A100R/A169T/F76Y/I96L/K127E/L162R/M171V/N62H/P40V/Q125Y/R42H/S133A/S149N/S66Y/V209L/W38E)", "experiment": "biochemical", "assay_type": "binding"}, "DRB1*0701": {"target": "DRB1*0701 (Homo sapiens, UniProt P01903+P01911, A100R/A102G/A103Q/D57E/D86V/E43K/F76Y/K127E/L162R/M171V/P40G/Q125H/Q99D/R33Q/R42Y/R54Q/S133A/S66F/T210M/V115G/Y107V/Y59L/Y89S)", "experiment": "biochemical", "assay_type": "binding"}, "DRB1*0802": {"target": "DRB1*0802 (Homo sapiens, UniProt P01903+P01911, A100R/A103L/A169T/F76Y/H45Y/I96F/K41T/L162R/M171V/P40S/Q125H/Q178H/Q39Y/Q99D/R218S/R42G/S66Y/V115G/W38E)", "experiment": "biochemical", "assay_type": "binding"}, "DRB1*1101": {"target": "DRB1*1101 (Homo sapiens, UniProt P01903+P01911, A100R/A169T/A87E/I96F/K41T/L162R/M171V/P40S/Q125H/Q178H/Q39Y/Q99D/R42S/S66Y/T262R/V115G/W38E)", "sequence (P01903 26-254 limits assumed, other chains not shown)": "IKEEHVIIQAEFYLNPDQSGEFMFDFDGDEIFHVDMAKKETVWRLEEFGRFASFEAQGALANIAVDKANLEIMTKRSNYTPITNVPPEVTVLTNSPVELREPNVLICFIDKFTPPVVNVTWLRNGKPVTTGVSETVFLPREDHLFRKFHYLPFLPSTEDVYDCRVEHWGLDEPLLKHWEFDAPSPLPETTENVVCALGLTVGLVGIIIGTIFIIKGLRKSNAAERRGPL", "experiment": "biochemical", "assay_type": "binding", "details": "read-out: IC50 nM to purified HLA DRB1*1101"}, "DRB1*1302": {"target": "DRB1*1302 (Homo sapiens, UniProt P01903+P01911, A100E/A169T/K41T/L162R/M171V/P40S/Q125H/Q178H/Q39Y/Q99D/R42S/S66N/T262R/V115G/W38E/Y61H)", "sequence (P01903 26-254 limits assumed, other chains not shown)": "as above", "experiment": "biochemical", "assay_type": "binding", "details": "read-out: IC50 nM to purified HLA DRB1*1302"}, "DRB1*1501": {"target": "T2, DRB1*1501 (Homo sapiens, UniProt P01903+P01911)", "T2 construct": "made in house; host or cells: EBV-transformed homozygous human B cell lines, transfected fibroblasts or single-allele 721.221 transfectants", "experiment": "biochemical", "assay_type": "binding", "details": "read-out: IC50 nM to purified HLA DRB1*1501"}, "DRB4*0101": {"target": "T3, DRB4*0101 (Homo sapiens, UniProt P01903+P13762, G164S)", "T3 construct": "made in house; host or cells: EBV-transformed homozygous human B cell lines, transfected fibroblasts or single-allele 721.221 transfectants", "experiment": "biochemical", "assay_type": "binding", "details": "IC50 nM to purified HLA DRB4*0101"}, "DRB5*0101": {"target": "T4, DRB5*0101 (Homo sapiens, UniProt P01903+Q30154)", "T4 construct": "made in house; host or cells: EBV-transformed homozygous human B cell lines, transfected fibroblasts or single-allele 721.221 transfectants", "experiment": "biochemical", "assay_type": "binding"}, "DRB1*0101": {"target": "T5, DRB1*0101 (Homo sapiens, UniProt P01903+P01911, A100R/D57E/F55L/F60I/F76Y/I96L/L162R/M171V/P40L/Q125E/R42F/V115G/Y59C)", "T5 construct": "made in house; host or cells: EBV-transformed homozygous human B cell lines, transfected fibroblasts or single-allele 721.221 transfectants", "experiment": "biochemical", "assay_type": "binding"}, "DRB1*0901": {"target": "DRB1*0901 (Homo sapiens, UniProt P01903+P01911, A100R/A103E/D57H/D86V/F55Y/F60I/F76Y/I96F/K127E/L162R/M171V/P40D/Q125H/Q99R/R33Q/R42F/S133A/S66N/T210M/V115G/W38K/Y107V/Y59G/Y89S)", "experiment": "biochemical", "assay_type": "binding", "details": "read-out: IC50 nM to purified HLA DRB1*0901"}, "DRB1*0405": {"target": "DRB1*0405 (Homo sapiens, UniProt P01903+P01911, A100R/A169T/D86S/F76Y/I96L/K127E/L162R/M171V/N62H/P40V/Q125Y/R42H/S133A/S149N/S66Y/V115G/V209L/W38E)", "experiment": "biochemical", "assay_type": "binding", "details": "read-out: IC50 nM to purified HLA DRB1*0405"}, "CD4+ PBMC": {"test_system": "CD4+ PBMC", "assay_type": "cell-based, human", "details": "IFNγ ELISPOT, PBMC rested five days, CD8-depleted"}, "DRB1*0301": {"target": "T6, DRB1*0301 (Homo sapiens, UniProt P01903+P01911, A100K/A102G/A103R/A169T/F55Y/I96L/K41T/L162R/M171V/P40S/Q125H/Q178H/Q39Y/R42S/S66N/T106N/T262R/W38E/Y61H)", "T6 construct": "made in house; host or cells: EBV-transformed homozygous human B cell lines, transfected fibroblasts or single-allele 721.221 transfectants", "T6 sequence (P01903 26-254, other chains not shown)": "as the sequence (P01903 26-254 limits assumed, other chains not shown) above", "experiment": "biochemical", "assay_type": "binding"}, "[1]": {"details": "IC50 nM to purified HLA DRB1*0404"}, "[2]": {"details": "IC50 nM to purified HLA DRB1*0101"}},
  "note": "Values joined by “and” are separate entries in the source; they are usually repeats but may differ in a detail not shown here. Equal entries are not always repeated. Where two headings read alike, the source gives them in different places.",
  "data": [
    {"smiles": "CC[C@H](C)[C@H](NC(=O)[C@@H](NC(=O)[C@H](CCCNC(=N)N)NC(=O)[C@H](CCC(N)=O)NC(=O)[C@@H](NC(=O)[C@@H](NC(=O)[C@H](CCSC)NC(=O)[C@H](CCCCN)NC(=O)[C@H](CCCCN)NC(=O)[C@@H](N)[C@@H](C)O)C(C)C)[C@@H](C)O)[C@@H](C)O)C(=O)NCC(=O)N[C@@H](CCCCN)C(=O)N[C@@H](CCCCN)C(=O)N[C@@H](CCCCN)C(=O)N[C@@H](CCC(N)=O)C(=O)O", "note": "[Flu.PB1.199]", "values": [
      {"measurement": "IC50", "setting": "DRB1*0401", "value": 71, "unit": "nM"},
      {"measurement": "IC50", "setting": "DRB1*0404; [1]", "value": 62, "unit": "nM"},
      {"measurement": "IC50", "setting": "DRB1*0701", "value": 14100, "unit": "nM"},
      {"measurement": "IC50", "setting": "DRB1*0802", "value": 55, "unit": "nM"},
      {"measurement": "IC50", "setting": "DRB1*1101", "value": 449, "unit": "nM"},
      {"measurement": "IC50", "setting": "DRB1*1302", "value": 6120, "unit": "nM"},
      {"measurement": "IC50", "setting": "DRB1*1501", "value": 9710, "unit": "nM"},
      {"measurement": "IC50", "setting": "DRB4*0101", "value": 57, "unit": "nM"},
      {"measurement": "IC50", "setting": "DRB5*0101", "value": 4.1, "unit": "nM"}
    ]},
    {"smiles": "CC[C@H](C)[C@H](NC(=O)[C@H](CCC(N)=O)NC(=O)[C@H](CCC(=O)O)NC(=O)[C@@H](N)Cc1ccccc1)C(=O)N[C@H](C(=O)N[C@@H](Cc1ccccc1)C(=O)N[C@@H](CCSC)C(=O)N[C@@H](CCC(N)=O)C(=O)N[C@@H](C)C(=O)N[C@@H](CC(C)C)C(=O)N[C@@H](CCC(N)=O)C(=O)N[C@@H](CC(C)C)C(=O)N[C@@H](CC(C)C)C(=O)N[C@@H](CC(C)C)C(=O)N[C@@H](CCC(=O)O)C(=O)O)[C@@H](C)O", "note": "[Flu.NS2.170]", "values": [
      {"measurement": "IC50", "setting": "DRB1*0101; read-out: IC50 nM to purified HLA DRB1*0101", "value": 5.3, "unit": "nM"},
      {"measurement": "IC50", "setting": "DRB1*0101; read-out: IC50 nM to purified HLA DRB1*0101, Table 4", "value": 5.3, "unit": "nM"},
      {"measurement": "IC50", "setting": "DRB1*0404; read-out: IC50 nM to purified HLA DRB1*0404", "value": 160, "unit": "nM"},
      {"measurement": "IC50", "setting": "DRB1*0802; read-out: IC50 nM to purified HLA DRB1*0802", "value": 2700, "unit": "nM"},
      {"measurement": "IC50", "setting": "DRB1*1302", "value": 1080, "unit": "nM"},
      {"measurement": "IC50", "setting": "DRB1*1501; Table 4", "value": 7, "unit": "nM"},
      {"measurement": "IC50", "setting": "DRB1*1501", "value": "7 nM and 9.7 nM"},
      {"measurement": "IC50", "setting": "DRB1*0901", "value": 47, "unit": "nM"}
    ]},
    {"smiles": "CC[C@H](C)[C@H](NC(=O)[C@H](CC(C)C)NC(=O)[C@H](Cc1ccccc1)NC(=O)CNC(=O)[C@H](CCCNC(=N)N)NC(=O)[C@H](CC(C)C)NC(=O)[C@@H](NC(=O)[C@H](C)NC(=O)[C@H](CO)NC(=O)[C@@H](N)CCC(=O)O)C(C)C)C(=O)N[C@@H](CC(C)C)C(=O)NCC(=O)N[C@@H](CCCCN)C(=O)N[C@@H](CCC(=O)O)C(=O)N[C@@H](CC(=O)O)C(=O)O", "note": "[Flu.PB2.690]", "values": [
      {"measurement": "IC50", "setting": "DRB1*0101; [2]", "value": 8.4, "unit": "nM"},
      {"measurement": "IC50", "setting": "DRB1*0404; [1]", "value": 110, "unit": "nM"},
      {"measurement": "IC50", "setting": "DRB1*0405", "value": 7100, "unit": "nM"},
      {"measurement": "IC50", "setting": "DRB1*0701", "value": 2470, "unit": "nM"},
      {"measurement": "IC50", "setting": "DRB1*0802", "value": 803, "unit": "nM"},
      {"measurement": "IC50", "setting": "DRB1*1501", "value": 39, "unit": "nM"},
      {"measurement": "IC50", "setting": "DRB4*0101", "value": 1280, "unit": "nM"},
      {"measurement": "IC50", "setting": "DRB5*0101", "value": 303, "unit": "nM"}
    ]},
    {"smiles": "CC[C@H](C)[C@H](N)C(=O)NCC(=O)N[C@@H](CCCNC(=N)N)C(=O)N[C@@H](Cc1ccccc1)C(=O)N[C@@H](Cc1ccc(O)cc1)C(=O)N[C@H](C(=O)N[C@@H](CCC(N)=O)C(=O)N[C@@H](CCSC)C(=O)N[C@@H](CS)C(=O)N[C@H](C(=O)N[C@@H](CCC(=O)O)C(=O)N[C@@H](CC(C)C)C(=O)N[C@@H](CCCCN)C(=O)N[C@@H](CC(C)C)C(=O)N[C@@H](CO)C(=O)O)[C@@H](C)O)[C@@H](C)CC", "note": "[Flu.NP.39]", "values": [
      {"measurement": "IC50", "setting": "DRB1*0101; [2]", "value": "64 nM and 43 nM"},
      {"measurement": "IC50", "setting": "DRB1*0101; IC50 nM to purified HLA DRB1*0101, Table 4", "value": 64, "unit": "nM"},
      {"measurement": "IC50", "setting": "DRB1*0802", "value": 130, "unit": "nM"},
      {"measurement": "IC50", "setting": "DRB1*1101", "value": 880, "unit": "nM"},
      {"measurement": "IC50", "setting": "DRB1*1302", "value": 640, "unit": "nM"},
      {"measurement": "IC50", "setting": "DRB4*0101", "value": 990, "unit": "nM"},
      {"measurement": "IC50", "setting": "DRB5*0101", "value": 78, "unit": "nM"},
      {"measurement": "Human influenza epitope-specific immune response, donor 3501", "setting": "CD4+ PBMC", "value": "Positive (Donors were considered positive for a peptide if the number of spots was over 3 times background as determined by responses to irrelevant peptides (non influenza))"}
    ]},
    {"smiles": "CC[C@H](C)[C@H](NC(=O)[C@H](CC(=O)O)NC(=O)[C@H](CCCCN)NC(=O)[C@H](CC(=O)O)NC(=O)[C@H](CCSC)NC(=O)[C@@H](NC(=O)[C@H](C)NC(=O)[C@H](CCC(N)=O)NC(=O)[C@H](CC(=O)O)NC(=O)[C@H](CCSC)NC(=O)[C@H](CCCNC(=N)N)NC(=O)[C@@H](NC(=O)[C@H](CS)NC(=O)[C@H](CC(C)C)NC(=O)[C@@H](N)CO)[C@@H](C)CC)[C@@H](C)CC)C(=O)O", "note": "[Flu.NS1.117]", "values": [
      {"measurement": "IC50", "setting": "DRB1*0301", "value": 58, "unit": "nM"},
      {"measurement": "IC50", "setting": "DRB1*0405", "value": 82, "unit": "nM"},
      {"measurement": "IC50", "setting": "DRB1*1101", "value": "> 10000", "unit": "nM"},
      {"measurement": "IC50", "setting": "DRB1*1302", "value": 53, "unit": "nM"},
      {"measurement": "IC50", "setting": "DRB1*0901", "value": 6900, "unit": "nM"}
    ]}
  ]
}
